Laboratory results as given in ChEMBL document CHEMBL3507680, “University of Dundee, Gates Library screen for HepG2 cell viability”.

Test: Human HepG2 cell viability assay in 384 well format
Format: toxicity, cell-based
Parameters: dose 125 nL, time 70.5 hour; cytotoxicity at 70.5 h: concentration not given beside the values
Settings: HepG2 cells, read-out: Inhibition

| Compound | cytotoxicity at 70.5 h [%] |
| --- | --- |
| O=C(c1ccco1)N1CC(S(=O)(=O)c2ccc(Cl)cc2)C1 | -10.1 |
| Cc1nnc2n1CC(CNCc1nc(-c3ccsc3)no1)CC2 (configuration not stated) | -14.6 |
| CNc1ccc(Cl)cc1C(=O)N1CCC(Cn2cc(CN)nn2)CC1 | 1.05 |
| Cn1cc(C(=O)N2CCCC2c2ccc3c(c2)OCCO3)ccc1=O (configuration not stated) | -4.05 |
| Cc1ccc(C(=O)N2CC[C@H]3[C@H]2CCN3CC2CCOCC2)cn1 | -9.27 |
| Cc1cc2ccccc2n1CCC(=O)N1CCCC(O)(CN(C)C)CC1 (configuration not stated) | -0.891 |
| Cc1ncsc1CCC(=O)NCc1csc(N2CCCC2)n1 | -6.59 |
| COc1ccc(Cc2ncc3c(n2)CN(C(=O)CCO)C3)cc1 | 25.1 |
| O=C1OCCN1CCSc1nnnn1C1CCOCC1 | -17.6 |
| Cn1c2c(c(=O)n1C)CN(S(=O)(=O)c1cccs1)CCC2 | -5.01 |
| CC(C)c1nc2c(n1C)CCN(CC(=O)Nc1ccc(Cl)cn1)C2 | -14.9 |
| COCC(=O)N1CCN(C(=O)c2cccs2)C[C@H]1C(=O)OC | 1.41 |
| COCCNc1ncc(-c2onc(C)c2C)c(-c2ccco2)n1 | -5.67 |
| c1coc(-c2noc(CN3CCCC(Cn4cncn4)C3)n2)c1 (configuration not stated) | 26 |
| c1cc2nccc(CC3CCCN(Cc4ncc[nH]4)CC3)c2cn1 (configuration not stated) | -7.89 |
| Cc1cc(C)nc(N2CCN(C(=O)c3ccc(C4CCCO4)s3)CC2)n1 (configuration not stated) | -11.5 |
| COCC(=O)N1CCO[C@H]2[C@H](OCc3cccnc3)CC[C@@H]21 | 1.22 |
| CC(C)n1nnc2c(sc3nc(N4CCOCC4)c4c(c32)CCC4)c1=O | -13.1 |
| Cc1cc(C(F)(F)F)nc(C2CCCN2S(C)(=O)=O)n1 (configuration not stated) | 1.14 |
| CC1(NC(=O)CC2CCc3ccccc32)CCOCC1 (configuration not stated) | -2.46 |
| Cc1cc(C(=O)N2C[C@@H](CN(C)CCN(C)C)[C@@H](CO)C2)nc(C)n1 | 21.1 |
| CCN(CC(=O)NC(C)C)S(=O)(=O)N1CCCCC1C (configuration not stated) | -3.14 |
| Cc1ncsc1C(=O)NCc1cc2n(n1)CCN(C(=O)N(C)C)C2 | -11.4 |

| Compound | cytotoxicity at 70.5 h [%] |
| --- | --- |
| CCOCC1CN(Cc2ccc(F)cc2)Cc2nn(CC3CC3)cc21 (configuration not stated) | -17.2 |
| Cn1cccc1C(=O)N1C[C@@H]2CCN(c3cccnc3)C[C@@H]2C1 | -7.6 |
| Cc1nc(C)n(CC2CCCN(CCc3ccccc3)C2)n1 (configuration not stated) | 4.16 |
| CCOCC(O)CNc1cncc(Br)c1 (configuration not stated) | -1.77 |
| COc1cccc(-c2nc(CNCc3cccnc3)cs2)c1 | -17.2 |
| Cc1cc(N(Cc2ccon2)S(C)(=O)=O)ccc1Br | 17.3 |
| CC(C)N1CCOCC2(CN(Cc3ccccn3)CCO2)C1 (configuration not stated) | -2.31 |
| CCOC(=O)NC(CNC(=O)c1cccc(C)n1)CC(C)C (configuration not stated) | 7.69 |
| c1cnc(N2CCO[C@H]3CN(CC4CCOC4)C[C@H]32)cn1 (some centres not stated) | -2.13 |
| c1cc(-c2c[nH]c([C@@H]3COCCN3Cc3ncc[nH]3)n2)ccn1 | 1.76 |
| O=C(c1cccc(N2CCCC2=O)c1)N1CCCC(n2cncn2)C1 (configuration not stated) | -8.04 |
| c1ccc(CO[C@@H]2C[C@H]3CN(c4ncccn4)CCN3C2)cc1 | 5.2 |
| CN(Cc1ccco1)C(=O)CN1CCCCC1Cn1cccn1 (configuration not stated) | -12.4 |
| Cn1cnnc1C1CCCN(C(=O)NCCn2ccnc2)C1 (configuration not stated) | -10.4 |
| CCc1nnc2n1CCN(C(=O)c1ccc(-c3ccco3)nc1C)C2 | 10 |
| CCc1nnc(CN(C)Cc2cccc(C(=O)Nc3cnn(C)c3)c2)o1 | 3.92 |
| CC(C)NC(=O)c1ccc2nnc(C3CCN(C(=O)NC(C)C)C3)n2c1 (configuration not stated) | -0.652 |
| CCCN(CCC)c1ncc(S(=O)(=O)c2ccc(OC)cc2)c(N)n1 | -9.23 |
| O=C(NCCc1nnc2n1CCC2)NC1(c2cccc(F)c2)CC1 | 7.47 |
| Cc1cnn(CCNCc2csc(-c3ccc4c(c3)OCO4)n2)c1 | 10.2 |
| COc1ccc2c(c1)CCCN(C(C)C(=O)N1CCCC1)C2 (configuration not stated) | -3.36 |
| O=C1CCN(C(=O)NCCc2c[nH]c3ccc(Cl)cc23)CCN1 | -8.44 |
| COc1cccc(N2Cc3nc(=O)n(Cc4cccc(F)c4)n3C2=O)c1 | -20.7 |

| Compound | cytotoxicity at 70.5 h [%] |
| --- | --- |
| Cc1cc(C(=O)N2CCCC2c2nc(C)cc(O)n2)on1 (configuration not stated) | -8.09 |
| Cc1cc(S(=O)(=O)Nc2onc(C)c2C)sc1C | -5.02 |
| O=C(c1ccc(Cl)o1)N1CCCC1c1nnc2n1CCCCC2 (configuration not stated) | 1.9 |
| COCCn1nc(C(=O)N2CCCC2c2cccc(F)c2)ccc1=O (configuration not stated) | -8.14 |
| NC(=O)c1ccc(OCCC(=O)NC2CCc3c(F)cccc32)cc1 (configuration not stated) | 21.4 |
| CCn1ncc2c1CCCC2NCc1ccc(C)s1 (configuration not stated) | -4.74 |
| O=C(O)c1cnc(N2CCCC2)nc1COc1ccc(F)cc1 | -21.1 |
| Cc1cn(CCn2ccnc2-c2sccc2C)nn1 | -2.5 |
| CC1CCN(CCNC(=O)C2CCN(S(N)(=O)=O)CC2)CC1 | -3.07 |
| N#Cc1cccc(N2CCCC3(C2)CN(c2ncc(F)cn2)CCO3)n1 (configuration not stated) | 1.87 |
| Cc1nc(NCC2CC2)nc2c1COCC21CCN(C(=O)C(C)(C)C)C1 (configuration not stated) | -18.4 |
| Cc1ncc(S(C)(=O)=O)c(N2CCCCCC2)n1 | 7.29 |
| CCOc1ccc(C(=O)N2CCCS2(=O)=O)cc1OC | -4.2 |
| CN(C)c1cc(CNC(=O)c2ccccc2Cl)ccn1 | 1.6 |
| CC(c1nc(C2CC2)no1)N1CCN(c2ccc(C#N)cn2)CC1 (configuration not stated) | -10.6 |
| O=c1[nH]ccn1CCCN1CC=C(c2cnn(-c3ccccc3)c2)CC1 | -2.11 |
| Cc1cccc(CN2C[C@@H](NC(=O)C3CC3)[C@H]3OCCC[C@H]32)n1 | 4.63 |
| Cc1cc(CN2CC[C@]3(C[C@@H](OCC(=O)N(C)C)CO3)C2)no1 | -6.96 |
| Cc1cc(C)n(CC2CN(CC(=O)NC(C3CC3)C3CC3)CCO2)n1 (configuration not stated) | -4.44 |
| O=C(O)c1cc(-c2ccncc2F)cc(S(=O)(=O)N2CCCCCC2)c1 | -23.6 |
| CCN1CCC(CNC(=O)C(c2ccccc2F)N(C)C)(N(C)C)CC1 (configuration not stated) | -2.78 |
| COc1ccccc1OC1CCN(Cc2cnc(N(C)C)nc2)CC1 | -7.45 |
| Cn1cnc2c(-c3cccnc3)nc(C3CCN(S(C)(=O)=O)CC3)cc21 | -8.84 |

| Compound | cytotoxicity at 70.5 h [%] |
| --- | --- |
| COc1cc(CN2CCC(O)(c3ccc(C)cn3)CC2)cc(Cl)c1OC | 17.5 |
| COC(=O)c1ccc(S(=O)(=O)NCC(O)c2sccc2C)cc1 (configuration not stated) | -2.62 |
| CSCc1cccc(S(=O)(=O)N2CCCCCC2)c1 | -4.01 |
| O=C(NCc1cncc2c1CCN(C1CCOCC1)C2)c1ccco1 | -2.15 |
| CS(=O)(=O)CCC(=O)N1C[C@@H]2CC[C@H](C1)N(Cc1ccccc1)C2=O | -8.53 |
| O=C(c1cccc2cccnc12)N1CCCC(n2ccnc2)C1 (configuration not stated) | -5.33 |
| COc1ccc2c(c1)CN(Cc1ccco1)C(=O)CCN2 | -10 |
| CN1CCN(c2ccc3ccc(C(=O)N4CCCO4)cn23)CC1 | -9.32 |
| O=C(NC[C@]1(O)CN(Cc2ncccc2F)C[C@H]1O)c1cc[nH]n1 | 21.3 |
| O=C(c1ccsc1)N1CCN2C[C@H](OCc3cccnc3)C[C@H]2C1 | -13.4 |
| CC(C)c1nc(C2CCCN(C(=O)CCCn3cccn3)C2)no1 (configuration not stated) | -4.14 |
| CCCn1[nH]cc/c1=N\C(=O)CN1CCc2c(nc(C(C)C)n2C)C1 | 18 |
| O=C(CN1CCC(c2ccnn2CCO)CC1)NC1CCCC1 | -3.63 |
| Cc1cccnc1CN1CCOC(Cc2cccc3ccccc23)C1 (configuration not stated) | -6.62 |
| CSc1ccc(C(=O)N2CC(=O)N(CC3CC3)CC(O)C2)cc1 (configuration not stated) | 2.74 |
| CN(C)c1cc2c(nn1)CCN(C(=O)c1ccc(-n3cccn3)nc1)C2 | -25.2 |
| O=C(C(CNCc1cccnc1)c1ccccc1)N1CCOCC1 (configuration not stated) | -8.37 |
| Cc1ccc(-c2nc(CNS(=O)(=O)N(C)C)[nH]c2-c2ccccn2)cc1 | -2.34 |
| COC(=O)Cn1c(=O)nc2n1C(=O)N(c1ccccc1)C2 | -8.59 |
| Cc1cc(C)c(C#N)c(NCCn2cnnc2C(C)C)n1 | 0.173 |
| CN(C(=O)NCc1ccncc1)C1CCN(c2ccccc2)C1=O (configuration not stated) | 11.5 |
| CCNC(=O)[C@@H]1C[C@@H](NC(=O)c2cnc[nH]c2=O)CN1Cc1ccsc1 | -2.36 |
| COc1ccc(CNC2CCN(CCc3ccncc3)CC2)cc1O | -6.38 |

| Compound | cytotoxicity at 70.5 h [%] |
| --- | --- |
| COc1ccc2c(c1)CCCN2C(=O)CNCC1CN(C)CCO1 (configuration not stated) | 12.1 |
| Cc1ccoc1C(=O)N1CCOCC2(CCN(c3ncccn3)C2)C1 (configuration not stated) | -11.7 |
| Cc1nnc2n1CCN(Cc1ccc3c(c1)OCCO3)C2 | -2.45 |
| c1ccc(CN2CCCC3(CCN(Cc4cccs4)C3)C2)nc1 (configuration not stated) | -7.54 |
| CNS(=O)(=O)c1ccccc1N1CCN(C(C)C(=O)OC)CC1 (configuration not stated) | -3.28 |
| CCC[C@H]1CN(c2nc(CO)cs2)C[C@@H]1NC(=O)C1(COC)CC1 | 4.28 |
| Cn1cccc1C(O)CNS(=O)(=O)c1ccccc1F (configuration not stated) | 3.03 |
| c1ccc(CN2CCC(CNc3ncnc4c3CCNCC4)CC2)cc1 | 0.757 |
| COc1cc(N2CC[C@@H]3O[C@H](C(=O)NCC4CC4)C[C@@H]32)ncn1 | 16.5 |
| CC(C)CSc1ccc(-n2cccn2)nn1 | 27.6 |
| CCN1CC(C(=O)N2CC(Oc3ccccc3F)C2)CC1=O (configuration not stated) | -1.35 |
| COc1cccc(CN2CCC3(CCN(C(=O)C4CC=CC4)CC3)C2)c1 | -3.83 |
| Cn1ccc2c(C(=O)N3CCCC(c4nnc[nH]4)C3)cccc21 (configuration not stated) | 4.32 |
| Cc1cc(C)cc(CNc2ccc(C(=O)NC(C)CO)cc2)c1 (configuration not stated) | -1.12 |
| CCc1ccsc1C(=O)N1CCN(CC(C)O)CC1 (configuration not stated) | -2.62 |
| Cc1cc(C)n(C2CCCN(C(=O)Cc3csc(C)n3)C2)n1 (configuration not stated) | 12.8 |
| COc1ccc(CN2CCn3cccc3C2C)cc1F (configuration not stated) | -3.79 |
| COc1c(CNC(C)C(=O)NC2CCCC2)c(C)nn1C (configuration not stated) | -6.91 |
| CCN(C(=O)c1nc2c(s1)CCCN2S(C)(=O)=O)C(C)C | 13.1 |
| O=C1NC[C@H]2CN(Cc3ccccn3)CCN12 | 0.693 |
